Laboratory results reported in PubChem BioAssay AID256 (DTP/NCI, 2004).
Values joined by “and” are separate entries in the source; they are usually repeats but may differ in a detail not shown here. Identical values can stand only once. Inconclusive results and toxic doses are left out. How the source made its calls: active means survival T/C of 150% or more; inactive means T/C below 125% in these data.

System: CD2F1 mice, L1210 leukemia ip, survival T/C
Assay: NCI In Vivo Anticancer Drug Screen. Data for tumor model L1210 Leukemia (intraperitoneal) in CD2F1 (CDF1) mice
Conditions: higher = longer survival
Method in brief: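 Read-out first: treated-group measurement over vehicle-control measurement, expressed as a ratio. Animals bore a transplanted tumor line and were dosed with compound or vehicle.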

Measured: T/C

O=C(O)CCCc1ccc(N(CCCl)CCCl)cc1
inactive: endpoint: mean survival time, dose: 0.5 mg/kg/injection, schedule: Q01DX009 (ip), vehicle: Klucel (hydroxypropylcellulose) (HPC) 103 % of control and 108 % of control | endpoint: mean survival time, dose: 1.0 mg/kg/injection, schedule: Q01DX009 (ip), vehicle: Klucel (hydroxypropylcellulose) (HPC) 94 % of control and 100 % of control and 106 % of control | endpoint: mean survival time, dose: 1.0 mg/kg/injection, schedule: Q03HX024 (ip), vehicle: other 102 % of control | endpoint: mean survival time, dose: 1.56 mg/kg/injection, schedule: Q01DX009 (ip), vehicle: saline 101 % of control and 103 % of control | endpoint: mean survival time, dose: 2.0 mg/kg/injection, schedule: Q01DX009 (ip), vehicle: Klucel (hydroxypropylcellulose) (HPC) 97 % of control and 100 % of control and 103 % of control | endpoint: mean survival time, dose: 2.0 mg/kg/injection, schedule: Q01DX009 (ip), vehicle: saline with Tween-80 106 % of control | endpoint: mean survival time, dose: 2.0 mg/kg/injection, schedule: Q01DX009 (oral), vehicle: other 102 % of control | endpoint: mean survival time, dose: 2.0 mg/kg/injection, schedule: Q03HX008 (ip), vehicle: other 101 % of control | endpoint: mean survival time, dose: 2.0 mg/kg/injection, schedule: Q03HX016 (ip), vehicle: other 103 % of control | endpoint: mean survival time, dose: 2.0 mg/kg/injection, schedule: Q03HX024 (ip), vehicle: other 105 % of control | endpoint: mean survival time, dose: 3.13 mg/kg/injection, schedule: Q01DX009 (ip), vehicle: saline 119 % of control and 110 % of control | endpoint: mean survival time, dose: 3.75 mg/kg/injection, schedule: Q01DX009 (ip), vehicle: Klucel (hydroxypropylcellulose) (HPC) 102 % of control | endpoint: mean survival time, dose: 4.0 mg/kg/injection, schedule: Q01DX001 (ip), vehicle: saline with Tween-80 91 % of control | endpoint: mean survival time, dose: 4.0 mg/kg/injection, schedule: Q01DX001 (oral), vehicle: other 95 % of control | endpoint: mean survival time, dose: 4.0 mg/kg/injection, schedule: Q01DX009 (ip), vehicle: Klucel (hydroxypropylcellulose) (HPC) 116 % of control and 101 % of control and 111 % of control | endpoint: mean survival time, dose: 4.0 mg/kg/injection, schedule: Q01DX009 (ip), vehicle: other 114 % of control | endpoint: mean survival time, dose: 4.0 mg/kg/injection, schedule: Q01DX009 (ip), vehicle: saline with Tween-80 117 % of control and 103 % of control | endpoint: mean survival time, dose: 4.0 mg/kg/injection, schedule: Q01DX009 (oral), vehicle: other 96 % of control | endpoint: mean survival time, dose: 4.0 mg/kg/injection, schedule: Q01DX009 (sc), vehicle: other 102 % of control | endpoint: mean survival time, dose: 4.0 mg/kg/injection, schedule: Q03HX008 (ip), vehicle: other 102 % of control | endpoint: mean survival time, dose: 4.0 mg/kg/injection, schedule: Q03HX016 (ip), vehicle: other 110 % of control | endpoint: mean survival time, dose: 4.0 mg/kg/injection, schedule: Q03HX024 (ip), vehicle: other 111 % of control | endpoint: mean survival time, dose: 4.0 mg/kg/injection, schedule: Q04DX003 (ip), vehicle: saline with Tween-80 102 % of control | endpoint: mean survival time, dose: 4.0 mg/kg/injection, schedule: Q04DX003 (oral), vehicle: other 107 % of control | endpoint: mean survival time, dose: 6.25 mg/kg/injection, schedule: Q01DX009 (ip), vehicle: saline 106 % of control and 110 % of control | endpoint: mean survival time, dose: 7.5 mg/kg/injection, schedule: Q01DX007 (ip), vehicle: saline 108 % of control | endpoint: mean survival time, dose: 7.5 mg/kg/injection, schedule: Q01DX009 (ip), vehicle: saline 114 % of control | endpoint: mean survival time, dose: 7.5 mg/kg/injection, schedule: Q03DX003 (ip), vehicle: saline 104 % of control | endpoint: mean survival time, dose: 7.5 mg/kg/injection, schedule: Q04DX003 (ip), vehicle: saline 102 % of control | endpoint: mean survival time, dose: 8.0 mg/kg/injection, schedule: Q01DX001 (ip), vehicle: saline with Tween-80 96 % of control | endpoint: mean survival time, dose: 8.0 mg/kg/injection, schedule: Q01DX001 (oral), vehicle: other 96 % of control | endpoint: mean survival time, dose: 8.0 mg/kg/injection, schedule: Q01DX009 (ip), vehicle: Klucel (hydroxypropylcellulose) (HPC) 113 % of control and 117 % of control and 105 % of control | endpoint: mean survival time, dose: 8.0 mg/kg/injection, schedule: Q01DX009 (ip), vehicle: other 120 % of control | endpoint: mean survival time, dose: 8.0 mg/kg/injection, schedule: Q01DX009 (ip), vehicle: saline with Tween-80 117 % of control and 101 % of control | endpoint: mean survival time, dose: 8.0 mg/kg/injection, schedule: Q01DX009 (oral), vehicle: other 106 % of control | endpoint: mean survival time, dose: 8.0 mg/kg/injection, schedule: Q01DX009 (sc), vehicle: other 111 % of control | endpoint: mean survival time, dose: 8.0 mg/kg/injection, schedule: Q03HX008 (ip), vehicle: other 119 % of control | endpoint: mean survival time, dose: 8.0 mg/kg/injection, schedule: Q03HX016 (ip), vehicle: other 118 % of control | endpoint: mean survival time, dose: 8.0 mg/kg/injection, schedule: Q04DX003 (ip), vehicle: other 118 % of control | endpoint: mean survival time, dose: 8.0 mg/kg/injection, schedule: Q04DX003 (ip), vehicle: saline with Tween-80 109 % of control | endpoint: mean survival time, dose: 8.0 mg/kg/injection, schedule: Q04DX003 (oral), vehicle: other 96 % of control | endpoint: mean survival time, dose: 10.0 mg/kg/injection, schedule: Q01DX009 (ip), vehicle: saline with Tween-80 118 % of control | endpoint: mean survival time, dose: 12.5 mg/kg/injection, schedule: Q01DX009 (ip), vehicle: saline 119 % of control | endpoint: mean survival time, dose: 15.0 mg/kg/injection, schedule: Q01DX007 (ip), vehicle: saline 122 % of control | endpoint: mean survival time, dose: 15.0 mg/kg/injection, schedule: Q01DX009 (ip), vehicle: Klucel (hydroxypropylcellulose) (HPC) 108 % of control | endpoint: mean survival time, dose: 15.0 mg/kg/injection, schedule: Q01DX009 (ip), vehicle: saline with Tween-80 120 % of control | endpoint: mean survival time, dose: 15.0 mg/kg/injection, schedule: Q01DX009 (ip), vehicle: saline 120 % of control | endpoint: mean survival time, dose: 15.0 mg/kg/injection, schedule: Q03DX003 (ip), vehicle: saline 117 % of control | endpoint: mean survival time, dose: 15.0 mg/kg/injection, schedule: Q04DX003 (ip), vehicle: saline 111 % of control | endpoint: mean survival time, dose: 16.0 mg/kg/injection, schedule: Q01DX001 (ip), vehicle: other 102 % of control | endpoint: mean survival time, dose: 16.0 mg/kg/injection, schedule: Q01DX001 (ip), vehicle: saline with Tween-80 107 % of control | endpoint: mean survival time, dose: 16.0 mg/kg/injection, schedule: Q01DX001 (oral), vehicle: other 93 % of control | endpoint: mean survival time, dose: 16.0 mg/kg/injection, schedule: Q01DX001 (sc), vehicle: other 104 % of control | endpoint: mean survival time, dose: 16.0 mg/kg/injection, schedule: Q01DX009 (ip), vehicle: Klucel (hydroxypropylcellulose) (HPC) 114 % of control and 97 % of control | endpoint: mean survival time, dose: 16.0 mg/kg/injection, schedule: Q01DX009 (ip), vehicle: saline with Tween-80 118 % of control and 97 % of control | endpoint: mean survival time, dose: 16.0 mg/kg/injection, schedule: Q01DX009 (oral), vehicle: other 120 % of control | endpoint: mean survival time, dose: 16.0 mg/kg/injection, schedule: Q01DX009 (sc), vehicle: other 120 % of control | endpoint: mean survival time, dose: 16.0 mg/kg/injection, schedule: Q04DX003 (ip), vehicle: other 115 % of control | endpoint: mean survival time, dose: 16.0 mg/kg/injection, schedule: Q04DX003 (ip), vehicle: saline with Tween-80 120 % of control | endpoint: mean survival time, dose: 16.0 mg/kg/injection, schedule: Q04DX003 (oral), vehicle: other 103 % of control | endpoint: mean survival time, dose: 16.0 mg/kg/injection, schedule: Q08DX002 (ip), vehicle: other 101 % of control | endpoint: mean survival time, dose: 30.0 mg/kg/injection, schedule: Q01DX007 (ip), vehicle: saline with Tween-80 90 % of control | endpoint: mean survival time, dose: 30.0 mg/kg/injection, schedule: Q01DX009 (ip), vehicle: Klucel (hydroxypropylcellulose) (HPC) 110 % of control | endpoint: mean survival time, dose: 30.0 mg/kg/injection, schedule: Q01DX009 (ip), vehicle: saline 124 % of control | endpoint: mean survival time, dose: 30.0 mg/kg/injection, schedule: Q04DX003 (ip), vehicle: saline 114 % of control | endpoint: mean survival time, dose: 32.0 mg/kg/injection, schedule: Q01DX001 (ip), vehicle: other 108 % of control | endpoint: mean survival time, dose: 32.0 mg/kg/injection, schedule: Q01DX001 (ip), vehicle: saline with Tween-80 117 % of control and 109 % of control | endpoint: mean survival time, dose: 32.0 mg/kg/injection, schedule: Q01DX001 (oral), vehicle: other 96 % of control | endpoint: mean survival time, dose: 32.0 mg/kg/injection, schedule: Q01DX001 (sc), vehicle: other 108 % of control | endpoint: mean survival time, dose: 32.0 mg/kg/injection, schedule: Q01DX009 (oral), vehicle: other 102 % of control | endpoint: mean survival time, dose: 32.0 mg/kg/injection, schedule: Q04DX003 (ip), vehicle: other 120 % of control | endpoint: mean survival time, dose: 32.0 mg/kg/injection, schedule: Q04DX003 (oral), vehicle: other 103 % of control | endpoint: mean survival time, dose: 32.0 mg/kg/injection, schedule: Q08DX002 (ip), vehicle: other 108 % of control | endpoint: mean survival time, dose: 64.0 mg/kg/injection, schedule: Q01DX001 (ip), vehicle: other 118 % of control | endpoint: mean survival time, dose: 64.0 mg/kg/injection, schedule: Q01DX001 (oral), vehicle: other 102 % of control | endpoint: mean survival time, dose: 64.0 mg/kg/injection, schedule: Q01DX001 (sc), vehicle: other 114 % of control | endpoint: mean survival time, dose: 64.0 mg/kg/injection, schedule: Q04DX003 (oral), vehicle: other 93 % of control | endpoint: mean survival time, dose: 64.0 mg/kg/injection, schedule: Q08DX002 (ip), vehicle: other 112 % of control | endpoint: median survival time, dose: 3.13 mg/kg/injection, schedule: Q01DX009 (ip), vehicle: saline 114 % of control and 105 % of control | endpoint: median survival time, dose: 6.25 mg/kg/injection, schedule: Q01DX009 (ip), vehicle: saline 114 % of control and 105 % of control | endpoint: median survival time, dose: 12.5 mg/kg/injection, schedule: Q01DX009 (ip), vehicle: saline 117 % of control

CC(C)(C)OC(=O)N/N=C/c1ccc2c(c1)CCC2
inactive: endpoint: mean survival time, dose: 100.0 mg/kg/injection, schedule: Q01DX001 (ip), vehicle: Klucel (hydroxypropylcellulose) (HPC) 101 % of control | endpoint: mean survival time, dose: 200.0 mg/kg/injection, schedule: Q01DX001 (ip), vehicle: Klucel (hydroxypropylcellulose) (HPC) 101 % of control | endpoint: mean survival time, dose: 400.0 mg/kg/injection, schedule: Q01DX001 (ip), vehicle: Klucel (hydroxypropylcellulose) (HPC) 104 % of control
